From patent US20240376084A1, “INHIBITORS OF ALPHA-HEMOLYSIN OF STAPHYLOCOCCUS AUREUS” (Helmholtz-Zentrum Fur Infektionsforschung GmbH, priority 2021, published 2024)
pEC50, pIC50: −log10 of the molar value.

Experiments:
[1] = molecular target: hemolysin alpha from Staphylococcus aureus (Staphylococcus aureus, UniProt P09616); test: cell-based
[2] = molecular target: S. aureus Alpha hemolysin (Staphylococcus aureus, UniProt P09616); test: cell-based
S. aureus Alpha hemolysin, sequence (P09616 27-319 limits assumed): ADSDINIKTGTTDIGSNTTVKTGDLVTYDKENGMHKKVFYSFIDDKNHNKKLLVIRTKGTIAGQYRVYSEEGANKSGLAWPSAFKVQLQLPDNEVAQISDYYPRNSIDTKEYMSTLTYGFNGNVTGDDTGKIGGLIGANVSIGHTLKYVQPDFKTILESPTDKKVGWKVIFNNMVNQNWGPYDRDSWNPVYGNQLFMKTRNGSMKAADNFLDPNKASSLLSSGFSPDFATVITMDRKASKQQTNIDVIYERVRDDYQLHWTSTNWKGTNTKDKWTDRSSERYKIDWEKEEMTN

hemolysin alpha from Staphylococcus aureus, sequence (P09616 27-319 limits assumed): as above

Row | SMILES | pEC50 [1] | pEC50 ([2]; A549-LDH Assay activity) | pIC50 [1] | pEC50 ([2]; LDH Assay EC50)
1 | CCOc1ccc(-c2ccc(NS(=O)(=O)c3cc4[nH]c(=O)c(=O)[nH]c4cc3C)cc2Cl)cc1 [Compound 319, N-[3-chloro-4-(4-ethoxyphenyl)phenyl]-7-methyl-2,3-dioxo-1,4-dihydroquinoxaline-6-sulfonamide] | 7.00 to 7.52 | 6.00 to 7.00 | – | –
2 | Cc1cc2[nH]c(=O)c(=O)[nH]c2cc1S(=O)(=O)Nc1ccc(-c2cccc(CN)c2)c(Cl)c1 [Compound 342, N-[4-[3-(aminomethyl)phenyl]-3-chloro-phenyl]-7-methyl-2,3-dioxo-1,4-dihydroquinoxaline-6-sulfonamide] | 5.46 to 6.00 | 6.00 to 7.00 | – | –
3 | Cc1cc2[nH]c(=O)c(=O)[nH]c2cc1S(=O)(=O)Nc1ccc(-c2ccc(C#N)cc2)c(Br)c1 [Compound 298, N-[3-bromo-4-(4-cyanophenyl)phenyl]-7-methyl-2,3-dioxo-1,4-dihydroquinoxaline-6-sulfonamide] | > 7.52 | 7.00 to 7.52 | – | –
4 | Cc1cc2[nH]c(=O)c(=O)[nH]c2cc1S(=O)(=O)Nc1ccc(-c2ccc(F)c(C(N)=O)c2)c(Cl)c1 [Compound 389, 5-[2-chloro-4-[(7-methyl-2,3-dioxo-1,4-dihydroquinoxalin-6-yl)sulfonylamino]phenyl]-2-fluoro-benzamide] | > 7.52 | 7.00 to 7.52 | – | –
5 | Cc1ccc(-c2c(C)cc(NS(=O)(=O)c3cc4[nH]c(=O)c(=O)[nH]c4cc3C)cc2C)o1 [Compound 84, N-(3,5-dimethyl-4-(5-methylfuran-2-yl)phenyl)-7-methyl-2,3-dioxo-1,2,3,4-tetrahydroquinoxaline-6-sulfonamide] | – | 6.00 to 7.00 | 6.00 to 7.00 | –
6 | Cc1cc2[nH]c(=O)c(=O)[nH]c2cc1S(=O)(=O)Nc1ccc(-c2ccc(F)cc2)c(C(F)(F)F)c1 [Compound 326, N-[4-(4-fluorophenyl)-3-(trifluoromethyl)phenyl]-7-methyl-2,3-dioxo-1,4-dihydroquinoxaline-6-sulfonamide] | > 7.52 | 7.00 to 7.52 | – | –
7 | Cc1cc2[nH]c(=O)c(=O)[nH]c2cc1S(=O)(=O)Nc1ccc(-c2cncnc2)c(Cl)c1 [Compound 66, N-(3-chloro-4-(pyrimidin-5-yl)phenyl)-7-methyl-2,3-dioxo-1,2,3,4-tetrahydroquinoxaline-6-sulfonamide] | – | 6.00 to 7.00 | 7.00 to 7.52 | –
8 | Cc1cc2[nH]c(=O)c(=O)[nH]c2cc1S(=O)(=O)Nc1ccc(-c2cccc(C#N)c2)c(Cl)c1 [Compound 318, N-[3-chloro-4-(3-cyanophenyl)phenyl]-7-methyl-2,3-dioxo-1,4-dihydroquinoxaline-6-sulfonamide] | 7.00 to 7.52 | 6.00 to 7.00 | – | –
9 | Cc1cc2[nH]c(=O)c(=O)[nH]c2cc1S(=O)(=O)Nc1cc(C)c(-c2ccsc2)c(C)c1 [Compound 42, N-(3,5-dimethyl-4-(thiophen-3-yl)phenyl)-7-methyl-2,3-dioxo-1,2,3,4-tetrahydroquinoxaline-6-sulfonamide] | – | 6.00 to 7.00 | 7.00 to 7.52 | –
10 | CCc1cc2[nH]c(=O)c(=O)[nH]c2cc1S(=O)(=O)Nc1ccc(OC(F)(F)F)cc1 [Compound 20, 7-ethyl-2,3-dioxo-N-(4-(trifluoromethoxy)phenyl)-1,2,3,4-tetrahydroquinoxaline-6-sulfonamide] | – | 7.00 to 7.52 | > 7.52 | –
11 | O=c1[nH]c2cc(Cl)c(S(=O)(=O)Nc3ccc(-c4ccc(F)c(Cl)c4F)c(Cl)c3)cc2[nH]c1=O [Compound 105, 7-chloro-N-(2,3′-dichloro-2′,4′-difluoro-[1,1′-biphenyl]-4-yl)-2,3-dioxo-1,2,3,4-tetrahydroquinoxaline-6-sulfonamide] | – | 6.00 to 7.00 | 6.00 to 7.00 | –
12 | Cc1cc2[nH]c(=O)c(=O)[nH]c2c(F)c1S(=O)(=O)Nc1ccc(-c2cccc(Cl)c2)c(Cl)c1 [Compound 43, N-(2,3′-dichloro-[1,1′-biphenyl]-4-yl)-5-fluoro-7-methyl-2,3-dioxo-1,2,3,4-tetrahydroquinoxaline-6-sulfonamide] | – | 5.22 to 6.00 | 7.00 to 7.52 | –
13 | Cc1cc2[nH]c(=O)c(=O)[nH]c2cc1S(=O)(=O)Nc1ccc(-c2cccc(S(C)(=O)=O)c2)c(Cl)c1 [Compound 313, N-[3-chloro-4-(3-methylsulfonylphenyl)phenyl]-7-methyl-2,3-dioxo-1,4-dihydroquinoxaline-6-sulfonamide] | 6.00 to 7.00 | 6.00 to 7.00 | – | –
14 | Cc1cc2[nH]c(=O)c(=O)[nH]c2cc1S(=O)(=O)Nc1ccc(-c2ccc(F)c(F)c2F)c(Cl)c1 [Compound 307, N-[3-chloro-4-(2,3,4-trifluorophenyl)phenyl]-7-methyl-2,3-dioxo-1,4-dihydroquinoxaline-6-sulfonamide] | 7.00 to 7.52 | 7.00 to 7.52 | – | –
15 | Cc1cc2[nH]c(=O)c(=O)[nH]c2cc1S(=O)(=O)Nc1ccc(-c2ccc3cn[nH]c3c2)c(Cl)c1 [Compound 370, N-[3-chloro-4-(1H-indazol-6-yl)phenyl]-7-methyl-2,3-dioxo-1,4-dihydroquinoxaline-6-sulfonamide] | > 7.52 | > 7.52 | – | –
16 | Cc1cc2[nH]c(=O)c(=O)[nH]c2cc1S(=O)(=O)Nc1cc(C)c(-c2cccs2)c(C)c1 [Compound 58, N-(3,5-dimethyl-4-(thiophen-2-yl)phenyl)-7-methyl-2,3-dioxo-1,2,3,4-tetrahydroquinoxaline-6-sulfonamide] | – | 5.22 to 6.00 | 7.00 to 7.52 | –

Row | SMILES | pEC50 [1] | pEC50 ([2]; A549-LDH Assay activity) | pIC50 [1] | pEC50 ([2]; LDH Assay EC50)
17 | COc1cc(NS(=O)(=O)c2cc3[nH]c(=O)c(=O)[nH]c3cc2C)ccc1-c1ccccc1C [Compound 124, N-(2-methoxy-2′-methyl-[1,1′-biphenyl]-4-yl)-7-methyl-2,3-dioxo-1,2,3,4-tetrahydroquinoxaline-6-sulfonamide] | – | 6.00 to 7.00 | 6.00 to 7.00 | –
18 | Cc1cc2[nH]c(=O)c(=O)[nH]c2cc1S(=O)(=O)Nc1ccc(C2CCCCC2)c(Cl)c1 [Compound 284, N-(3-chloro-4-cyclohexyl-phenyl)-7-methyl-2,3-dioxo-1,4-dihydroquinoxaline-6-sulfonamide] | 7.00 to 7.52 | 6.00 to 7.00 | – | –
19 | COc1ccc(-c2ccc(NS(=O)(=O)c3cc4[nH]c(=O)c(=O)[nH]c4cc3C)cc2C(F)(F)F)cc1F [Compound 345, N-[4-(3-fluoro-4-methoxy-phenyl)-3-(trifluoromethyl)phenyl]-7-methyl-2,3-dioxo-1,4-dihydroquinoxaline-6-sulfonamide] | > 7.52 | > 7.52 | – | –
20 | Cc1cc2[nH]c(=O)c(=O)[nH]c2cc1S(=O)(=O)Nc1ccc(-c2cccc(C(N)=O)c2)c(Cl)c1 [Compound 245, 3-[2-chloro-4-[(7-methyl-2,3-dioxo-1,4-dihydroquinoxalin-6-yl)sulfonylamino]phenyl] benzamide] | > 7.52 | 7.00 to 7.52 | – | –
21 | Cc1cc2[nH]c(=O)c(=O)[nH]c2cc1S(=O)(=O)Nc1ccc(C(C)C)cc1 [Compound 76, N-(4-isopropylphenyl)-7-methyl-2,3-dioxo-1,2,3,4-tetrahydroquinoxaline-6-sulfonamide] | – | 6.00 to 7.00 | 6.00 to 7.00 | –
22 | O=c1[nH]c2cc(F)c(S(=O)(=O)Nc3ccc(-c4ccncc4)c(Cl)c3)cc2[nH]c1=O [Compound 150, N-(3-chloro-4-(pyridin-4-yl)phenyl)-7-fluoro-2,3-dioxo-1,2,3,4-tetrahydroquinoxaline-6-sulfonamide] | – | 6.00 to 7.00 | 6.00 to 7.00 | –
23 | Cc1cc2[nH]c(=O)c(=O)[nH]c2cc1S(=O)(=O)Nc1ccc(-c2cc(F)cc(F)c2)c(Cl)c1 [Compound 309, N-[3-chloro-4-(3,5-difluorophenyl)phenyl]-7-methyl-2,3-dioxo-1,4-dihydroquinoxaline-6-sulfonamide] | > 7.52 | 6.00 to 7.00 | – | –
24 | O=c1[nH]c2cc(Cl)c(S(=O)(=O)Nc3ccc(-c4ccccc4F)c(Cl)c3)cc2[nH]c1=O [Compound 25, 7-chloro-N-(2-chloro-2′-fluoro-[1,1′-biphenyl]-4-yl)-2,3-dioxo-1,2,3,4-tetrahydroquinoxaline-6-sulfonamide] | – | 6.00 to 7.00 | > 7.52 | –
25 | COc1cc2[nH]c(=O)c(=O)[nH]c2cc1S(=O)(=O)Nc1ccc(Cl)cc1 [Compound 380, N-(4-chlorophenyl)-7-methoxy-2,3-dioxo-1,4-dihydroquinoxaline-6-sulfonamide] | 5.46 to 6.00 | 6.00 to 7.00 | – | –
26 | Cc1cc2[nH]c(=O)c(=O)[nH]c2cc1S(=O)(=O)Nc1ccc(-c2ccccc2C(N)=O)cc1 [Compound 126, 4′-((7-methyl-2,3-dioxo-1,2,3,4-tetrahydroquinoxaline)-6-sulfonamido)-[1,1′-biphenyl]-2-carboxamide] | – | 6.00 to 7.00 | 5.46 to 6.00 | –
27 | Cc1cc2ccc(-c3ccc(NS(=O)(=O)c4cc5[nH]c(=O)c(=O)[nH]c5cc4C)cc3Cl)cc2[nH]1 [Compound 349, N-[3-chloro-4-(2-methyl-1H-indol-6-yl)phenyl]-7-methyl-2,3-dioxo-1,4-dihydroquinoxaline-6-sulfonamide] | > 7.52 | > 7.52 | – | –
28 | O=c1[nH]c2cc(NCCO)c(S(=O)(=O)Nc3ccc(OC(F)(F)F)cc3)cc2[nH]c1=O [Compound 281, 7-(2-hydroxyethylamino)-2,3-dioxo-N-[4-(trifluoromethoxy)phenyl]-1,4-dihydroquinoxaline-6-sulfonamide] | > 7.52 | > 7.52 | – | –
29 | CCc1cc2[nH]c(=O)c(=O)[nH]c2cc1S(=O)(=O)Nc1ccc(Br)c(Cl)c1 [Compound 149, N-(4-bromo-3-chlorophenyl)-7-ethyl-2,3-dioxo-1,2,3,4-tetrahydroquinoxaline-6-sulfonamide] | – | 6.00 to 7.00 | 6.00 to 7.00 | –
30 | Cc1cc2[nH]c(=O)c(=O)[nH]c2cc1S(=O)(=O)Nc1ccc(-c2ccc(F)cc2)c(N2CCOCC2)c1 [Compound 250, N-[4-(4-fluorophenyl)-3-morpholino-phenyl]-7-methyl-2,3-dioxo-1,4-dihydroquinoxaline-6-sulfonamide] | 6.00 to 7.00 | 5.22 to 6.00 | – | –
31 | Cc1cc2[nH]c(=O)c(=O)[nH]c2cc1S(=O)(=O)Nc1ccc(N2CCOC[C@H]2C)c(Cl)c1 [Compound 243, (R)-N-(3-chloro-4-(3-methylmorpholino)phenyl)-7-methyl-2,3-dioxo-1,2,3,4-tetrahydroquinoxaline-6-sulfonamide] | 5.46 to 6.00 | 6.00 to 7.00 | – | –
32 | O=c1[nH]c2ccc(S(=O)(=O)Nc3ccc(OC(F)(F)F)cc3)cc2[nH]c1=O [drawing 469 (R^2 = H), reference compound] | 6.54 | – | – | 6.62
